From patent publication US5545656A, “2-Oxidole-1-carboxamide pharmaceutical agents for the treatment of alzheimer's disease” (Pfizer Inc., priority 1995, dated 1996) come the findings set out here.

Holding throughout (assay type): cell-based
For assay [1], the system named is production of PGD2 (cyclooxygenase pathway) by RBL-1 cells. The experiment in a line: Inhibition of the cyclooxygenase pathway (PGD2 formation) in RBL-1 cells. As to conditions: Rattus norvegicus, 5 min, [14C]-arachidonic acid plus calcium ionophore, N in brackets, read-out: RBL-cells PGD2 formation IC50 ± SD (N). The protocol:
METHOD FOR ASSESSING THE INHIBITION OF THE CYCLOOXYGENASE PATHWAY IN (RBL) CELLS
a) RBL-1 cell incubations. […] A 0.5 ml allquot of cell suspension was preincubated at 30° C. for 10 minutes with 1 μl dimethyl sulfoxide (DMSO) solution of drug. […] Five minutes later, the incubation was terminated by the addition of a 0.27 ml volume of acetonitrile (ACN)/acetic acid (HOAc) (100:3). The mixture was then clarified of precipitated protein by centrifugation. Analysis of 5-LO/COX pathway products was performed by radioactivity monitoring after separation by high performance liquid chromatography (HPLC). […] The area under the curve (AUC) as measured in integration units for each product was compared to the average AUC value for untreated (no drug) controls. […] Half-maximal (IC50) points were estimated from these curves.

Assay [2] has as its system IL-1β release by human monocytes. The assay can be described thus: ATP-induced IL-1β posttranslational processing (ATP kick), ELISA. The settings on record: Monocyte, LPS-stimulated human monocytes, IL-1β ELISA, read-out: Human Monocyte AtP kick % Inh. As to the method:
PROTOCOL FOR ATP-INDUCED IL-Iβ POSTTRANSLATIONAL PROCESSING
Cells: Human monocytes were isolated by Ficoll-Hypaque centrifugation of heparinized blood. The monocyte band off the gradient was collected, diluted with RPMI 1640, 5% fetal bovine serum (FBS), 20 mM N-[2[hydroxyethyl]piperazine-N-[2-ethanesulfonic acid] (Hepes), pH 7.3 (40 ml) and the cells were collected by centrifugation. The cell pellet was washed twice with 30 ml of RPMI 1640, 5% FBS, 20 mM Hepes (Maintenance Medium). The monocytes were resuspended in 50 ml of the Maintenance Medium. Into each well of a 96 well plate was added […] mononuclear cells. The cell suspension was diluted to a final concentration of 1.5×10^5 mononuclear cells. (To accomplish this, the cell suspension was diluted to a final concentration of 1.5×10^6 cell/ml and 0.2 ml was added to each well of the plate.) After incubating at 37° C. for 2 hours, the supernatant containing non-adherent cells was removed by aspiration. The adherent cells were washed once with 0.15 ml of Maintenance medium. Then, 0.15 ml of fresh Maintenance Medium was added and the cells were incubated overnight at 37° C.
Stimulation: Lipopolysaccharide (LPS) was added to a final concentration of 10 ng/ml and incubated at 37° C. for 2 hours. […]

The test system is the same in assay [3]. The experiment in a line: ATP kick, slightly different assay that employed metabolically labeled cells. As to conditions: Monocyte, read-out: Human Monocyte AtP kick IC50 (No. Trials), starred values. An excerpt: *Values for tenidap (the first compound in the table), and in one case
ilonidap (the second compound in the table) were derived from a slightly
different assay that employed metabolically labeled cells.

A word on the IC50: it is the concentration needed to halve the response being measured. In the case of `Cc1ccc2c(c1)C(C(=O)c1cccs1)C(=O)N2C(N)=O` (centres unmarked) [CH3 H 2'-thienyl], the concentration for half-maximal inhibition (IC50) in assay [1] amounted to 99 µM. Moreover, in assay [2], the inhibition at 19 µM was 32%. Turning to `NC(=O)N1C(=O)C(C(=O)c2ccoc2)c2cc(Cl)ccc21` (centres unmarked) [Cl H 3'-furyl], the half-inhibitory concentration (IC50) in assay [1] was found to be 3.2 µM. On to `NC(=O)N1C(=O)C(C(=O)c2ccsc2)c2cc(Cl)ccc21` (centres unmarked) [Cl H 3'-thienyl], for which the IC50 in assay [1] turned out to be 0.7 µM. Besides, in assay [2], the inhibition at 19 µM is 14%. `NC(=O)N1C(=O)C(C(=O)C(F)(F)F)c2cc(Cl)ccc21` (centres unmarked) [Cl H Trifluoromethyl]: the IC50 in assay [1] was determined as 37 µM.

Consider `NC(=O)N1C(=O)C(C(=O)c2cccs2)c2cc(Cl)ccc21` (centres unmarked) [tenidap, 5-chloro-2,3-dihydro-2-oxo-3-(2-thienylcarbonyl)-indole-1-carboxamide], for which the half-maximal inhibitory concentration (IC50) is 0.02 ± 0.02 µM in assay [1] and 40 µM in assay [3].
